The source of these data is patent publication US5192756A, “Aminosterol antibiotic” (The Children's Hospital of Pennsylvania, priority 1992, dated 1993).

One data set deals with Paramecium caudatum. In words: Minimal disruptive concentration, Paramecium caudatum. Conditions: 1% trypticase soy broth, light microscopy for ten minutes, read-out: Minimal Inhibitory Concentration (minimal disruptive concentration for the protozoa). It counts as cell-based. As for the experimental part: (§1) Squalamine was assayed in vitro against several microbial organisms to evaluate its spectrum of activity.
(§2) Initial sample concentrations were 2 mg/ml in 250 mM sodium acetate pH 6.6, 11.2 mM HCl, except taurolithocholic acid 3-sulfate which was 2 mg/ml in 50 mM sodium acetate, and squalamine to which HCl was not added because it was acidic following the last step of purification. Spermidine HCl, taurolithocholic acid 3-sulfate, melittin, holothurin and ampicillin were purchased from Sigma (St. Louis, Miss.). CHAPS (3-[(3-cholamidopropyl)dimethylammonio]-1-propane sulfonate dihydrate) was purchased from Aldrich (Milwaukee, Wis.). Conessine was purchased from Aldrich Rare Chemicals Division (Milwaukee, Wis.). Magainin-II amide and CPF-amide were made by Magainin Pharmaceuticals, Inc. (Plymouth Meeting, Penn.). The CPF peptide used in the assay has the sequence […]-NH2. (Richter, K., et al., J. Biol. Chem. 261, 3676-3680 (1986).
(§3) Minimal disruptive concentration (the concentration at which physical disruption of the protozoa occurred) was determined for the protozoa by adding […] of sample (in sodium acetate as above) to […] of 1% trypticase soy broth containing P. caudatum (Nasco, Fort Atkinson, Wiss,). Organisms were observed by light microscopy for ten minutes.

The test system of a further data set is Strep. faecalis. The data set can be described thus: Minimal inhibitory concentration, Strep. faecalis. It counts as cell-based. Particulars: Enterococcus faecalis, ATCC29212; Strep. faecalis ATCC 29212; 1/2×TSB, 37° C., 18 to 24 hours. The protocol: as §1
(§4) Minimal inhibitory concentrations for the bacteria and yeast were determined by incubating 0.9-11×10^5 colony-forming units/ml of log-phase organisms in 1/2×tryptica soy broth (TSB) with increasing concentrations of sample in static 96-2311 microtiter plates (Corning, Inc., Corning, N.Y.) at 37° C. for 18 to 24 hours. The minimal inhibitory concentration is the concentration of sample at which no growth was observed. Control incubation in the absence of […] served to set a baseline value.
as §2

The next data set concerns Pseudomonas aeruginosa. In words: Minimal inhibitory concentration, Pseudomonas aeruginosa. It counts as cell-based. Conditions: ATCC27853; Pseudomonas aeruginosa ATCC 27853; 1/2×TSB, 37° C., 18 to 24 hours. The protocol:
as §1, §4, §2

The test system of another data set is Serratia marcescens. In words: Minimal inhibitory concentration, Serratia marcescens. It counts as cell-based. Particulars: ATCC8100; Serratia marcescens ATCC 8100; 1/2×TSB, 37° C., 18 to 24 hours. The protocol: as §1, §4, §2
In data set [1] the test system is E. coli D31. In words: Heat resistance of antimicrobial activity (boiling). Conditions: 0.2 μg/ml in 1×phosphate buffered saline, boiled fifteen minutes, E. coli D31 lawn. It counts as physicochemical. The protocol:
Squalamine at 0.2 μg/ml in 1×phosphate buffered saline was boiled for fifteen minutes. A 2 μl aliquot of the sample before and after boiling was applied to a lawn of E. coli D31.

For data set [2], the system named is several microbial organisms. In words: In vitro antimicrobial spectrum (bacteria, fungi, protozoa), in words. It counts as cell-based. As for the experimental part:
as §1, §4, §2, §3

The next data set deals with Staph. aureus. The data set can be described thus: Minimal inhibitory concentration, Staph. aureus. It counts as cell-based. Conditions: Staphylococcus aureus, ATCC29213; Staph. aureus ATCC 29213; 1/2×TSB, 37° C., 18 to 24 hours. The protocol:
as §1, §4, §2

The nature of data set [3]: Tissue distribution of squalamine in Squalus acanthias. As for the experimental part:
The tissue distribution of squalamine was determined by extraction of freshly obtained tissues of Squalus using the same procedure as described in Example 1 for the stomach extraction. Other Squalus acanthias tissues (about 50 g of liver, gallbladder, spleen, testes, gill and intestine) were extracted as above, and purified through the C18 HPLC stage. Antimicrobial activity was detected in each tissue, and one reversed-phasefraction from each tissue was analyzed by FAB mass spectroscopy. The yield from the stomach was determined by spotting several dilutions onto a TLC plate and comparing the ninhydrin staining to a spermidine standard curve. The result agreed with the estimate obtained by NMR spectroscopy when the squalamine signal intensity was compared to that of a standard. An estimate of the yield of squalamine from other tissues was made by comparing the antimicrobial activity of reversed-phase fractions to the activity from the stomach.

Another data set deals with human erythrocytes. In words: Hemolytic activity against human erythrocytes. It counts as cell-based. As for the experimental part: Because of its structural resemblance to steroidal detergents, squalamine was assayed for its hemolytic activity against human erythrocytes.
Each sample was diluted in H2 O and was added to a 10% (vol/vol) suspension of human erythrocytes in phosphate buffered saline (PBS). Erythrocytes were collected with heparin and washed once in 1×PBS before the assay. Samples were incubated at 37° C. for ten minutes, centrifuged at 12,000× g for one minute, and the OD350 of the supernatant was measured. Addition of Triton X-100 (final concentration 0.1%) defined 100% hemolysis.

The subject of a further data set is Proteus vulgaris. In words: Minimal inhibitory concentration, Proteus vulgaris. It counts as cell-based. Particulars: ATCC13315; Proteus vulgaris ATCC 13315; 1/2×TSB, 37° C., 18 to 24 hours. The protocol: as §1, §4, §2
In data set [4] the test system is E. coli D31. The data set can be described thus: Protease resistance of antimicrobial activity (proteinase K). It counts as in vitro ADME. Particulars: proteinase K 2 mg/ml, one hour, 37° C.; E. coli D31 lawn. As for the experimental part:
Proteinase K (final concentration 2 mg/ml) was added to 0.2 μg/μl squalamine or 0.8 μg/μl magainin II amide in 1×phosphate-buffered saline. After a one hour incubation at 37° C., 2 μl of each sample was applied to the lawn of E. coli D31.

Another data set has as its system E. coli. In words: Minimal inhibitory concentration, E. coli. Conditions: Escherichia coli, ATCC25922; E. coli ATCC 25922; 1/2×TSB, 37° C., 18 to 24 hours. It counts as cell-based. As for the experimental part: as §1, §4, §2
The next data set has as its system Candida albicans. The data set can be described thus: Minimal inhibitory concentration, Candida albicans. It counts as cell-based. Conditions: ATCC14053; Candida albicans ATCC 14053; 1/2×TSB, 37° C., 18 to 24 hours. The protocol:
as §1, §4, §2

Converted amounts (≈) assume the structure as drawn. “Also recorded” adds a separate entry of the source.

For `CC(C)C(CC[C@@H](C)[C@H]1CC[C@H]2[C@@H]3[C@H](O)C[C@H]4C[C@@H](NCCCNCCCCN)CC[C@]4(C)[C@H]3CC[C@]12C)OS(=O)(=O)O` (stereo partly drawn) [Squalamine, 3β(N-[3-aminopropyl]-1,4-butanediamine)-7α,24.zeta.-dihydroxy-5α-cholestane 24-sulfate], the MIC is 4 to 8 µg/mL (≈ 6.37 to 12.7 µM) in the data set with Paramecium caudatum; 1 to 2 µg/mL (≈ 1.59 to 3.18 µM) in the data set with Strep. faecalis; 4 to 8 µg/mL (≈ 6.37 to 12.7 µM) in the data set with Pseudomonas aeruginosa; greater than 125 µg/mL in the data set on Serratia marcescens; 1 to 2 µg/mL (≈ 1.59 to 3.18 µM) with Staph. aureus; 4 to 8 µg/mL (≈ 6.37 to 12.7 µM) against Proteus vulgaris. Besides, the results for the MIC against E. coli and against Candida albicans were 1 to 2 µg/mL (≈ 1.59 to 3.18 µM) and 4 to 8 µg/mL (≈ 6.37 to 12.7 µM), respectively. Also, the “antimicrobial activity after boiling” value is “retained its antimicrobial activity after boiling” in the data set on E. coli D31 [1]; “resistant to boiling and protease treatment” with E. coli D31 [1] (listed as squalamine). Besides, in data set [2] (bacteria of Table I), the “antibacterial activity (in words)” value is reported as “compares in antibacterial potency to ampicillin”. Also, the “antibiotic activity (in words)” value in [2] (bacteria, fungi, protozoa, concentration range studied) is “broad range of potent antibiotic activity against a plurality of microorganisms including gram-positive and gram-negative bacteria, fungi, protozoa and the like; also recorded: somewhat more potent than the Xenopus antimicrobial peptides”. The “squalamine content of tissue” value in data set [3] (gills) is listed as 0.5 μg/gm; in data set [3] (intestine), 0.02 μg/gm; in [3] (liver and gall bladder), 4-7 μg/gm; in [3] (spleen), “about 2 μg/gm”; in data set [3] (stomach) it was 1 μg/gm; in [3] (testes), “about 2 μg/gm”. Also, in the data set with human erythrocytes (FIG. 3, 37° C., ten minutes), the “hemolytic activity (in words)” value is recorded as “exhibits some hemolytic activity, it occurs at higher concentrations than observed for a non-selective membrane disruptive amphipathic peptide, such as mellitin”. For the same compound, the “antibiotic versus hemolytic concentration / selectivity (in words)” value in the data set on human erythrocytes (antibiotic activity compared with erythrocyte disruption) is listed as “exerts antibiotic activity at concentrations below which erythrocyte disruption is observed”. Moreover, the “antimicrobial activity after proteinase K digestion” value in the data set on E. coli D31 [4] was “retained its activity; also recorded: resistant to boiling and protease treatment”.
